Results on 7 compounds are retold here after patent US4200575A, “7[(2-Thiazolyl)-2-(oxoimino)acetamido]cephalosporin derivatives” (Takeda Chemical Industries, Ltd., priority 1977, dated 1980).

What all share (assay): Minimal inhibitory concentration (M.I.C.), agar dilution method
Conditions in all cases: TSA, inoculum 10^7 /ml
(In agar dilution, organisms are placed on agar that contains the substance at set levels.)

For test [1], the system named is C. freundii GN 99. Type of test: cell-based, Citrobacter freundii. From the text:
(§1) (a) Determination of minimal inhibitory concentrations (Tables 1 to 8):
(§2) Procedure: agar dilution method

Test [2] deals with C. freundii GN 1706. Type of test: cell-based, Citrobacter freundii.
Source text: as §1, §2

For test [3], the system named is S. marcescens TN 24. It is filed as cell-based, Serratia marcescens.
Source text: as §1, §2

Test [4] concerns S. marcescens IFO 12648. Type of test: cell-based, Serratia marcescens.
Source text: as §1, §2

The subject of test [5] is P. rettgeri GN4733. Type of test: cell-based, Proteus rettgeri.
Source text: as §1, §2

For test [6], the system named is P. rettgeri TN 338. Type of test: cell-based, Proteus rettgeri.
Source text: as §1, §2

The test system of test [7] is S. aureus 209P. It is filed as cell-based, Staphylococcus aureus.
Source text: as §1, §2

The subject of test [8] is S. aureus 1840. It is filed as cell-based, Staphylococcus aureus.
Source text: as §1, §2

Test [9] has as its system E. cloacae TN 1282. Type of test: cell-based, Enterobacter cloacae.
Source text: as §1, §2

The subject of test [10] is P. morganii IFO 3168. It is filed as cell-based, Proteus morganii.
Source text: as §1, §2

The subject of test [11] is E. coli NIHJ JC-2. It is filed as cell-based, Escherichia coli.
Source text: as §1, §2

Test [12] has as its system E. coli T-7. Type of test: cell-based, Escherichia coli.
Source text: as §1, §2

For test [13], the system named is K. pneumoniae GN 3835. Type of test: cell-based, Klebsiella pneumoniae.
Source text: as §1, §2

Test [14] has as its system K. pneumoniae DT. Type of test: cell-based, Klebsiella pneumoniae.
Source text: as §1, §2

In test [15] the test system is E. coli 0-111. Type of test: cell-based, Escherichia coli. A digest of the protocol: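 MIC against E. coli O-111 was determined by agar dilution.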
The subject of test [16] is P. mirabilis GN 4359. It is filed as cell-based, Proteus mirabilis.
Source text: as §1, §2

Test [17] deals with P. vulgaris IFO 3988. Type of test: cell-based, Proteus vulgaris.
Source text: as §1, §2

The subject of test [18] is P. vulgaris GN 4413. Type of test: cell-based, Proteus vulgaris.
Source text: as §1, §2

For `CCCNC(=O)O/N=C(\C(=O)NC1C(=O)N2C(C(=O)O)=C(COC(C)=O)CSC12)c1csc(=N)[nH]1` (stereo not drawn) [Example II - 12], the “minimal inhibitory concentration (M.I.C.)” value in test [1] is listed as 0.39; in test [2], 0.78; in [3], 12.5; in test [4] it was 6.25; in test [5], 0.2; in [6], no more than 0.012. The “minimal inhibitory concentration (M.I.C.)” value in test [7] is given as 1.56; in test [8] it was 1.56; in test [9], 6.25; in [10], 0.78; in test [11], 0.39; in [12] it was 3.13. Besides, the “minimal inhibitory concentration (M.I.C.)” value in test [13] came out at 0.39; in test [14] it was 0.1; in test [15], 0.024; in test [16] it was 0.1; in test [17], 0.39; in test [18], 12.5.

For `CCCCNC(=O)O/N=C(\C(=O)NC1C(=O)N2C(C(=O)O)=C(C)CSC12)c1csc(=N)[nH]1` (stereo not drawn) [Example II - 23], the “minimal inhibitory concentration (M.I.C.)” value is reported as 12.5 in test [1]; 25 in test [2]; greater than 100 in test [3]; 100 in test [4]; 0.39 in [5]; 0.1 in test [6]. The “minimal inhibitory concentration (M.I.C.)” value is 12.5 in [7]; 12.5 in test [8]; 100 in test [9]; 100 in [10]; 12.5 in [11]; 25 in [12]. The “minimal inhibitory concentration (M.I.C.)” value was determined as 6.25 in [13]; 3.13 in test [14]; 6.25 in test [15]; 3.13 in [16]; 12.5 in [17]; 50 in [18].

With `CCNC(=O)O/N=C(\C(=O)NC1C(=O)N2C(C(=O)O)=C(COC(N)=O)CSC12)c1csc(=N)[nH]1` (stereo not drawn) [Example II - 8], the “minimal inhibitory concentration (M.I.C.)” value in test [1] is given as 0.1; in [2] it was 0.39; in [3] it was 6.25; in [4] it was 6.25; in [5], 0.05; in test [6] it was no more than 0.012. Moreover, the “minimal inhibitory concentration (M.I.C.)” value in [7] came to 3.13; in test [8], 3.13; in [9], 12.5; in test [10], 3.13; in [11] it was 0.2; in test [12] it was 1.56. Moreover, the “minimal inhibitory concentration (M.I.C.)” value was 0.2 in [13]; 0.05 in test [14]; 0.024 in test [15]; 0.1 in [16]; 0.1 in test [17]; 100 in test [18].

Take `CNC(=O)O/N=C(\C(=O)NC1C(=O)N2C(C(=O)[O-])=C(C[n+]3ccc(C(N)=O)cc3)CSC12)c1csc(=N)[nH]1` (stereo not drawn) [Example IV - 2, 7-[2-(2-imino-4-thiazolin-4-yl)-2-methylcarbamoyloximinoacetamido]-3-(4-carbamoylpyridiniummethyl)-3-cephem-4-carboxylate (syn-isomer)]: the “minimal inhibitory concentration (M.I.C.)” value in [1] is given as 0.78; in test [2], 1.56; in test [3], 3.13; in test [4], 3.13; in test [5], 0.78; in [6] it was 0.1. Besides, the “minimal inhibitory concentration (M.I.C.)” value in test [7] is listed as 3.13; in test [8], 3.13; in test [9] it was 3.13; in test [10], 0.78; in test [11], 0.78; in test [12], 6.25. In addition, the “minimal inhibitory concentration (M.I.C.)” value in test [13] is recorded as 1.56; in test [14], 0.39; in test [15], 0.2; in test [16] it was 1.56; in test [17], 0.78; in [18], 12.5.

`CNC(=O)O/N=C(\C(=O)NC1C(=O)N2C(C(=O)O)=C(CSc3nnc(CC(N)=O)s3)CSC12)c1csc(=N)[nH]1` (stereo not drawn) [Example IV - 6]: the “minimal inhibitory concentration (M.I.C.)” value is recorded as no more than 0.2 in test [1]; no more than 0.78 in test [2]; 3.15 in test [3]; 3.13 in [4]; 0.39 in test [5]; no more than 0.2 in test [6]. Further, the “minimal inhibitory concentration (M.I.C.)” value is on record as 1.56 in test [7]; 3.13 in test [8]; 3.13 in test [9]; no more than 0.2 in test [10]; no more than 0.2 in test [11]; 3.13 in test [12]. Besides, the “minimal inhibitory concentration (M.I.C.)” value was 0.39 in test [13]; no more than 0.2 in test [14]; no more than 0.2 in [15]; 0.39 in test [16]; no more than 0.2 in [17]; 25 in test [18].

As to `CC(=O)OCC1=C(C(=O)O)N2C(=O)C(NC(=O)/C(=N\OC(=O)NC(C)C)c3csc(=N)[nH]3)C2SC1` (stereo not drawn) [Example II - 16], the “minimal inhibitory concentration (M.I.C.)” value in test [1] is 0.39; in test [2], 0.78; in test [3], 25; in test [4] it was 6.25; in test [5] it was 0.2; in test [6], no more than 0.012. The “minimal inhibitory concentration (M.I.C.)” value in test [7] was 1.56; in test [8] it was 3.13; in [9] it was 6.25; in test [10], 0.78; in test [11], 0.39; in test [12], 3.13. For the same compound, the “minimal inhibitory concentration (M.I.C.)” value is on record as 0.78 in test [13]; 0.1 in test [14]; 0.024 in [15]; 0.1 in test [16]; 0.39 in test [17]; 25 in [18].

Turning to `CC(=O)OCC1=C(C(=O)[O-])N2C(=O)C(NC(=O)Cc3cccs3)[C@H]2SC1.[Na+]` (stereo partly drawn) [Cephalothin, sodium 7-(2-thienylacetamido)-3-acetoxymethyl-3-cephem-4-carboxylate, reference compound], the “minimal inhibitory concentration (M.I.C.)” value in test [1] is on record as 25; in [2], greater than 100; in test [3], greater than 100; in [4], greater than 100; in [5], greater than 100; in [6], 1.56. Besides, the “minimal inhibitory concentration (M.I.C.)” value in [7] is listed as 0.20; in test [8], 0.39; in test [9], greater than 100; in test [10] it was greater than 100; in test [11] it was 12.5; in [12], 100. In addition, the “minimal inhibitory concentration (M.I.C.)” value in test [13] is listed as 12.5; in test [14], 1.56; in test [15], 3.13; in test [16], 3.13; in test [17], 1.56; in test [18], greater than 100.
